Experimental findings from patent US11236086B2, “Substituted pyrrolopyridines as inhibitors of activin receptor-like kinase” (BLUEPRINT MEDICINES CORPORATION, priority 2017, dated 2022) are described below.

For assay [1], the target named is T1, ALK2R206H (mutant ALK2, N-terminally tagged with GST) (Homo sapiens, UniProt Q04771, R206H).
T1 construct: purchased Carna Bioscience or ThermoFisher 09-148 or PV6232
T1 sequence (Q04771 21-509 R206H): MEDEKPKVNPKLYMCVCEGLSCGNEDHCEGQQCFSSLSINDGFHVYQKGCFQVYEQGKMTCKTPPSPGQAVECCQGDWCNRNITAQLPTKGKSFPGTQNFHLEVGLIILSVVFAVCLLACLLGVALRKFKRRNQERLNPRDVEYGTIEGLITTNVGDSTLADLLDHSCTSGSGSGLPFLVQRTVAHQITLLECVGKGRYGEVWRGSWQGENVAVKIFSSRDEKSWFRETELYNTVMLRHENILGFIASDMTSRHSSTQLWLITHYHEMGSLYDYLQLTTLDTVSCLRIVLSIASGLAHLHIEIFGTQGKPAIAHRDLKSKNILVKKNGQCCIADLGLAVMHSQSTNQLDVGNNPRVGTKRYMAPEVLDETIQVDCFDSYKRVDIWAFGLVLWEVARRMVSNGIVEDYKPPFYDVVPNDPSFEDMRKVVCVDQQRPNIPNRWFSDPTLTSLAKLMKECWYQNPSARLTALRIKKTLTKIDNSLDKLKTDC
The experiment in a line: ALK binding assay (LANTHASCREEN TR-FRET competitive binding, displacement of Kinase Tracer 178). As to conditions: read-out: Binding Assay (IC50 class). In short, it runs like this:
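GST-tagged ALK2 R206H (2-5 nM) mixed with Eu-anti-GST antibody (4-10 nM), Kinase Tracer 178 (50 nM, near its Kd) and compound titration (1% DMSO) in Kinase Buffer A, 30 min at room temperature. Tracer displacement read as TR-FRET ratio, normalized to controls; IC50 from 4-parameter fit.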
(TR-FRET usually uses a lanthanide donor and a delayed reading to cut background.)

For a further assay, the target named is T2, human ALK2 R206H (Homo sapiens, UniProt Q04771, R206H).
T2 construct: expressed in transfected cells; host or cells: HEK293 (ATCC CRL1573), lentivirus transduction, blasticidin selection
T2 sequence (Q04771 21-509 R206H): T1 sequence (Q04771 21-509 R206H)
Briefly: Cell-based ALK2-R206H cell activity assay (Smad1-Ser463/Ser465 phosphorylation by AlphaLISA in HEK293-ALK2-R206H cells). The conditions noted are these: phospho-Smad1 AlphaLISA, read-out: Cell Line (Cell Assay, IC50 class). As for the experimental part:
Example 11. Cell-Based ALK2-R206H Cell Activity Assay
A HEK293 (ATCC, Cat No. CRL1573) based stable cell line expressing human ALK2 R206H cDNA (synthesized by GeneScript, Piscataway, N.J.) and a FLAG tag at the C-terminus was generated by lentivirus transduction and subsequent blasticidin (Life Technologies, Cat No. A1113902) selection at 10 μg/ml for >2 wks. This cell line was named HEK293-ALK2-R206H.
B. Measurement of Smad1-Ser463/Ser465 Phosphorylation by AlphaLISA
HEK293-ALK2-R206H cells were grown, harvested, and then resuspended in serum-free, phenol red-free DMEM high glucose media (Life Technologies, Cat No. 31053). The media also contained 50 units/ml penicillin and 50 μg/ml streptomycin (Life Technologies, Cat. No. 15070-063). HEK293-ALK2-R206H cells were then plated in white opaque 384-wells microplates (2×10^4/well) (OptiPlate-384, PerkinElmer, Waltham, Mass., Cat No. 6007299) overnight (>16h) at 37° C. 5% CO2 for use in the assay.
Test compounds were first diluted to 4 mM or 0.4 mM and then serially diluted 3-fold into 10 different concentrations using DMSO. Each concentration of compound was further diluted 40-fold with phenol red-free DMEM (Life Technologies, Cat No. 31053). 2 μl of the diluted compounds were then dispensed into the HEK293-ALK2-R206H cell-containing wells of the microplates in duplicates. In this way, each compound was tested in 10 doses (3-fold serial dilution with the top concentration being 10 μM or 1 μM). Liquid handling was achieved using a Bravo Automated Liquid Handling Platform (Agilent Technologies). DMSO without compound was used as a negative control. The positive control was 1 μM LDN193189, a known bone morphogenetic protein (BMP inhibitor).
After 2-3 hours of incubation with test compound or control, the cells were lysed and signal was developed using ALPHASCREEN® SUREFIRE® SMAD1 (p-Ser463/465) cellular kinase assay kit (PerkinElmer, Cat No. TGRSM1S10K) following the manufacturer's recommended protocol. The microplates were read using Perkin Elmer ENVISION® plate reader (emission […]). The signal reflected the level of phospho-Ser/463/465-Smad1 in the lysate. The raw data were plotted using the DMSO negative and LDN193189 positive controls as the 0% and 100% inhibition, respectively. The 10-point dose response curve was used to calculate the IC50 values.
The results of this assay are shown in Table 3 in the column labeled “Cell Assay” wherein “A” represents an IC50 of less than or equal to 100 nM; “B” an IC50 of greater than 100 nM and less than or equal to 500 nM; “C” an IC50 of greater than 500 nM. Blank values in the table indicate that the particular compound was not tested in this assay.
A general note: Alpha assays give light when donor and acceptor beads are brought close together.

The structures appear in SMILES notation.

Take `C[C@@H](CF)OC(=O)N1CCN(c2ccnc3[nH]c(-c4cnn(C)c4)cc23)CC1` [Compound 117]: the IC50 (usually the concentration that inhibits the measured activity by half) was ≤ 10 nM in assay [1] and ≤ 100 nM on human ALK2 R206H.
For the molecule `C[C@@H](F)COC(=O)N1CCN(c2ccnc3[nH]c(-c4cnn(C)c4)cc23)CC1` [Compound 118], the IC50 in assay [1] is ≤ 10 nM; at human ALK2 R206H, 100 to 500 nM.
For `CC(C)c1ccc(-c2cc3c(N4CCN(C(=O)C5CC5)CC4)ccnc3[nH]2)cc1` [Compound 120], the concentration for half-maximal inhibition (IC50) in assay [1] is ≤ 10 nM; at human ALK2 R206H, 100 to 500 nM.
Consider `CCOC(=O)N1CCN(c2ccnc3[nH]c(-c4cnn(C)c4)c(Cl)c23)CC1` [Compound 121], for which the IC50 in assay [1] is ≤ 10 nM; at human ALK2 R206H it was ≤ 100 nM.
As for `CCOC(=O)N1CCN(c2ccnc3[nH]c(-c4cn(C)nc4Cl)cc23)CC1` [Compound 122], the figures for the half-maximal inhibitory concentration (IC50) (in assay [1]; on human ALK2 R206H) were ≤ 10 nM and 100 to 500 nM, respectively.
With `Cn1cc(-c2cc3c(N4CCN(C(=O)[C@H]5C[C@H](C#N)C5)CC4)ccnc3[nH]2)cn1` [Compound 123], the IC50 in assay [1] is ≤ 10 nM; on human ALK2 R206H, 100 to 500 nM.
On to `Cn1cnc(-c2cc3c(N4CCN(C(=O)OCC(F)F)CC4)ccnc3[nH]2)c1` [Compound 124], for which the IC50 in assay [1] was ≤ 10 nM; on human ALK2 R206H, ≤ 100 nM.
Take `CCOC(=O)N1CCN(c2ccnc3[nH]c(-c4cnn(C(F)F)c4)cc23)CC1` [Compound 125]: the 50% inhibitory concentration (IC50) is ≤ 10 nM in assay [1] and ≤ 100 nM on human ALK2 R206H.
In the case of `Cn1cc(-c2cc3c(N4CCN(C(=O)OCC(F)F)CC4)ccnc3[nH]2)cn1` [Compound 126], the IC50 in assay [1] is ≤ 10 nM; at human ALK2 R206H it was ≤ 100 nM.
In the case of `CCOc1ccc(-c2cc3c(N4CCN(C(=O)C5CC5)CC4)ccnc3[nH]2)cc1` [Compound 127], the values for the IC50 (in assay [1]; on human ALK2 R206H) were 10 to 50 nM and 100 to 500 nM, respectively.
The matching figures for `O=C(C1CC1)N1CCN(c2ccnc3[nH]c(-c4cnn(C5CCC5)c4)cc23)CC1` [Compound 128]: ≤ 10 nM and 100 to 500 nM.
Regarding `Cn1cc(-c2[nH]c3nccc(N4CCN(C(=O)OC5CC5)CC4)c3c2C#N)cn1` [Compound 129], the IC50 was ≤ 10 nM in assay [1] and ≤ 100 nM at human ALK2 R206H.
Take `Cn1cnc(-c2[nH]c3nccc(N4CCN(C(=O)OC5CC5)CC4)c3c2C#N)c1` [Compound 130]: the half-maximal inhibitory concentration (IC50) was ≤ 10 nM in assay [1] and ≤ 100 nM at human ALK2 R206H.
For the molecule `Cn1cc(-c2cc3c(N4CCN(C(=O)CC(F)(F)F)CC4)ccnc3[nH]2)cn1` [Compound 131], the half-maximal inhibitory concentration (IC50) in assay [1] was 10 to 50 nM; at human ALK2 R206H, > 500 nM.
For the molecule `CC#Cc1c(-c2cnn(C)c2)[nH]c2nccc(N3CCN(C(=O)OCC)CC3)c12` [Compound 132], the IC50 was ≤ 10 nM in assay [1] and ≤ 100 nM on human ALK2 R206H.
On to `O=C(C1CC1)N1CCN(c2ccnc3[nH]c(-c4cnn(C5COC5)c4)cc23)CC1` [Compound 133], for which the figures for the half-maximal inhibitory concentration (IC50) (in assay [1]; on human ALK2 R206H) were ≤ 10 nM and 100 to 500 nM, respectively.
The matching figures for `Cn1cc(-c2cc3c(N4CCN(C(=O)C5CCCCC5)CC4)ccnc3[nH]2)cn1` [Compound 134]: ≤ 10 nM and 100 to 500 nM.
On to `Cn1cc(-c2cc3c(N4CCN(C(=O)CC5CCCC5)CC4)ccnc3[nH]2)cn1` [Compound 135], for which the IC50 in assay [1] was ≤ 10 nM; on human ALK2 R206H, 100 to 500 nM.
For `CCCOC(=O)N1CCN(c2ccnc3[nH]c(-c4cnn(C)c4)c(C#N)c23)CC1` [Compound 136], the IC50 in assay [1] was ≤ 10 nM; on human ALK2 R206H it was ≤ 100 nM.
The matching figures for `CC(C)OC(=O)N1CCN(c2ccnc3[nH]c(-c4cnn(C)c4)c(C#N)c23)CC1` [Compound 137]: ≤ 10 nM and ≤ 100 nM.
As to `Cc1nc(-c2cc3c(N4CCN(C(=O)OC5CCC5)CC4)ccnc3[nH]2)cn1C` [Compound 139], the IC50 in assay [1] is ≤ 10 nM; on human ALK2 R206H it was ≤ 100 nM.
Consider `Cc1c(-c2cnn(C)c2)[nH]c2nccc(N3CCN(C(=O)OC4CCC4)CC3)c12` [Compound 140], for which the half-inhibitory concentration (IC50) in assay [1] was ≤ 10 nM; at human ALK2 R206H it was ≤ 100 nM.
As to `Cn1cc(-c2cc3c(N4CCN(C(=O)C5CCOCC5)CC4)ccnc3[nH]2)cn1` [Compound 144], the half-inhibitory concentration (IC50) in assay [1] was ≤ 10 nM; on human ALK2 R206H, > 500 nM.
